In US9249453B2, “Method for identifying a malodor inhibitor” (Kao Corporation, priority 2011, dated 2016):
Like-named read-outs stand apart in the source and are kept apart here.

How the values were obtained:
Assay type in all cases: cell-based
OR2W1 = molecular target: T1, OR2W1 (Homo sapiens, UniProt Q9Y3N9); experiment: Luciferase reporter assay: suppression of the skatole response of OR2W1 expressed in HEK293 cells; conditions: for inhibition at 100 µM: read-out: Inhibition rate 2W1
T1 construct: expressed in transfected cells; host or cells: HEK293
T1 sequence (Q9Y3N9 1-320): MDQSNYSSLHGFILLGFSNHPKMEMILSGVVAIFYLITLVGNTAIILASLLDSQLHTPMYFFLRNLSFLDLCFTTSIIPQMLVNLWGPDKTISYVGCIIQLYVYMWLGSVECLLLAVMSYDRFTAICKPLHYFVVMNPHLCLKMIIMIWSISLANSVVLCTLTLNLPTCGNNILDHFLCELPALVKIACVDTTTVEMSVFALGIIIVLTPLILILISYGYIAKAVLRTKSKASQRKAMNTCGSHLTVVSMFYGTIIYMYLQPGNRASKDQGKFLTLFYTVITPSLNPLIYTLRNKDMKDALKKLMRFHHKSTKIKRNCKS
Experimental: (§1) A reaction solution having a composition shown in Table 1 was prepared on a clean bench, and left to stand for 15 minutes. The solution was dispensed to each well of a 96-well plate (BD). Subsequently, HEK293 cells (100 μL, 3×10^5 cells/cm^2) were seeded in each well and cultured for 24 hours in an incubator at 37° C. and under 5% CO2 conditions.
(§2) The olfactory receptor expressed in HEK293 cells activates adenylate cyclase with the aid of Gαs present in cells, to thereby increase intracellular cAMP level. In this study, odorant response was measured by a luciferase reporter gene assay which monitored the intracellular cAMP level as the luminescence value derived from a firefly luciferase gene (fluc2P-CRE-hygro). Also, a Renilla luciferase gene fused downstream of a CMV promoter (hRluc-CMV) was also transfected to HEK293 cells as an internal standard to correct errors in gene transfer efficiency and number of cells.
(§3) Cell culturing was performed for four hours in a CO2-incubator, whereby the luciferase gene sufficiently expressed in the cells. Luciferase activity was measured by means of a Dual-Glo™ luciferase assay system (promega) according to an instruction manual thereof. The luminescence value derived from firefly luciferase induced by odorant stimulation was divided by the luminescence value of cells which were not stimulated with odorants. The thus-obtained—called “fold increase”—was employed as an index for response intensity.
(§4) The response inhibition rate of a test substance was calculated as follows. Firstly, luminescence value derived from firefly luciferase induced by stimulation with skatole (X), and luminescence value in cells which expressed the same receptor but were not stimulated with skatole (Y) were determined. By subtracting Y from X, the receptor activity by stimulation with skatole alone (X−Y) was determined. Similarly, the luminescence value induced by stimulation with a mixture of skatole and a test substance (Z) was determined. Through subtracting Y (the luminescence value in cells which expressed the same receptor but were not stimulated with skatole) from Z, the receptor activity (Z−Y) by stimulation with a mixture of skatole and the test substance was obtained. From the thus-obtained receptor activity by stimulation with skatole alone (X−Y) and the receptor activity in the presence of a test material (Z−Y), the response inhibition rate of the test substance was calculated by the following equation: Inhibition rate (%)={1−(Z−Y)/(X−Y)}×100.
(§5) In each case, multiple independent experiments were performed in duplicate, and the average of each experiment was used.

OR5K1 = molecular target: T2, OR5K1 (Homo sapiens, UniProt Q8NHB7); experiment: Luciferase reporter assay: suppression of the skatole response of OR5K1 expressed in HEK293 cells; conditions: for inhibition at 100 µM: read-out: Inhibition rate 5K1
T2 construct: expressed in transfected cells; host or cells: HEK293
T2 sequence (Q8NHB7 1-308): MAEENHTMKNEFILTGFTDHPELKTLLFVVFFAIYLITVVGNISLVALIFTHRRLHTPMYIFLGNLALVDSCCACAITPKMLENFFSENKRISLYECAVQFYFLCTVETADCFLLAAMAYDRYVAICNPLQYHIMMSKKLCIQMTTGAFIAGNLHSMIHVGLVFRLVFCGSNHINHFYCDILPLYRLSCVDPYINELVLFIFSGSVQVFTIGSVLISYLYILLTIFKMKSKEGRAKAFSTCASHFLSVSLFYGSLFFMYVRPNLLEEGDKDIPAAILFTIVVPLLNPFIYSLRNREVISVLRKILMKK
Experimental: as §1, §2, §3, §4, §5

OR5P3 = molecular target: T3, OR5P3 (Homo sapiens, UniProt Q8WZ94); experiment: Luciferase reporter assay: suppression of the skatole response of OR5P3 expressed in HEK293 cells; conditions: test substance 100 μM mixed with 300 μM skatole, HEK293 cells expressing OR5P3
T3 construct: expressed in transfected cells; host or cells: HEK293
T3 sequence (Q8WZ94 1-311): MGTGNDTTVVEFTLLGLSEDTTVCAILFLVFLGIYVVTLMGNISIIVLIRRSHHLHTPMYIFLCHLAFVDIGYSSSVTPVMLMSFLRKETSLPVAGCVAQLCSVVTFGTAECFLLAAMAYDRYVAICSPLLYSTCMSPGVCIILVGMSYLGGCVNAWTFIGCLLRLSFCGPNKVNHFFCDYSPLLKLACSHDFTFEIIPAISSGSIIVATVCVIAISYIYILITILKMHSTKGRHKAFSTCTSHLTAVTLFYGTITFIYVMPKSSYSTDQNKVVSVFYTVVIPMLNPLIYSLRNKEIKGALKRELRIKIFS
Experimental: as §1, §2, §3, §4, §5

OR8H1 = molecular target: T4, OR8H1 (Homo sapiens, UniProt Q8NGG4); experiment: Luciferase reporter assay: suppression of the skatole response of OR8H1 expressed in HEK293 cells; conditions: for inhibition at 100 µM: read-out: Inhibition rate 8H1
T4 construct: expressed in transfected cells; host or cells: HEK293
T4 sequence (Q8NGG4 1-311): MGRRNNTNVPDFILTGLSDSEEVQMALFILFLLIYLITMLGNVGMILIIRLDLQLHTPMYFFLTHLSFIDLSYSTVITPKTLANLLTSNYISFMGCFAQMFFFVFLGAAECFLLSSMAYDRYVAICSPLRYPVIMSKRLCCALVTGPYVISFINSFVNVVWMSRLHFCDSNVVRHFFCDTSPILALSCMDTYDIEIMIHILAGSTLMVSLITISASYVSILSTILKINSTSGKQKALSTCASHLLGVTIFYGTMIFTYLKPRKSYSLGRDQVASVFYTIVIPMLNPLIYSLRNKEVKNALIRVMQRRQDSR
Experimental: as §1, §2, §3, §4, §5

[1] = 4 h, test substance 100 μM mixed with 300 μM skatole, HEK293 cells expressing OR2W1
[2] = 4 h, test substance 100 μM mixed with 300 μM skatole, HEK293 cells expressing OR5K1
[3] = 4 h, test substance 100 μM mixed with 300 μM skatole, HEK293 cells expressing OR8H1
[4] = test substance 100 μM mixed with 300 μM skatole, HEK293 cells expressing OR2W1
[5] = test substance 100 μM mixed with 300 μM skatole, HEK293 cells expressing OR5K1
[6] = test substance 100 μM mixed with 300 μM skatole, HEK293 cells expressing OR8H1

| Compound | inhibition at 100 µM (OR2W1; [1]) | inhibition at 100 µM (OR5K1; [2]) | Inhibition rate 5P3 (OR5P3) | inhibition at 100 µM (OR8H1; [3]) | inhibition at 100 µM (OR2W1; HEK293, 4 h) | inhibition at 100 µM (OR5K1; HEK293, 4 h) | inhibition at 100 µM (OR8H1; HEK293, 4 h) | Inhibition rate 2W1 (OR2W1; [4]) | Inhibition rate 5K1 (OR5K1; [5]) | Inhibition rate 8H1 (OR8H1; [6]) |
| --- | --- | --- | --- | --- | --- | --- | --- | --- | --- | --- |
| O=C1CCCCCCC=CCCCCCCC1 [globanone, 8-Cyclohexadecen-1-one] | > 80% | < 20% | C (C >20%) | < 20% |  |  |  |  |  |  |
| CCCCCCCC1CCC(=O)O1 (centres unmarked) [γ-undecalactone, 5-Heptyl dihydro-2(3H)-furanone] | 50 to 80% | 50 to 80% | B (B >50%) | 50 to 80% |  |  |  |  |  |  |
| Cc1ccc(C(C)C)c(O)c1 [thymol, 5-Methyl-2-(1-methylethyl)-phenol] | 20 to 50% | > 80% | A (A >80%) | 20 to 50% |  |  |  |  |  |  |
| CC(C)c1cccc(C(C)CC=O)c1 (stereo not drawn) [Florhydral, β-Methyl-3-(1-methylethyl)benzenepropanal] | 50 to 80% | 50 to 80% | B (B >50%) | 50 to 80% |  |  |  |  |  |  |
| O=C1CCCCCCC/C=C\CCCCCCC1 [civetone, (Z)-Cycloheptadeca-9-en-1-one] |  |  | B (B >50%) |  | > 80% | 50 to 80% | 50 to 80% |  |  |  |
| CC(C)=CCC/C(C)=C/CO [geraniol, 2-trans-3,7-Dimethyl-2,6-octadien-1-ol] | < 20% | 20 to 50% | B (B >50%) | 50 to 80% |  |  |  |  |  |  |
| COC(C)(C)CCCC(C)CC=O (centres unmarked) [methoxycitronellal, 7-Methoxy-3,7-dimethyl-octanal] | 20 to 50% | 50 to 80% | C (C >20%) | 20 to 50% |  |  |  |  |  |  |
| CC1COCc2cc3c(cc21)C(C)(C)C(C)C3(C)C (centres unmarked) [Galaxolide, 1,3,4,6,7,8-Hexahydro-4,6,6,7,8,8-hexamethylcyclopenta-γ-2-benzopyran] | 50 to 80% | > 80% | C (C >20%) | > 80% |  |  |  |  |  |  |
| CC1(C)CCCC2(C)C1CCC1(C)OCCC12 (centres unmarked) [Ambroxane, Dodecahydro-3a,6,6,9a-tetramethyl-naphtho[2.1-b]furan] |  |  | B (B >50%) |  |  |  |  | A (A >80%) | C (C >20%) | A (A >80%) |
| CC(C=O)C1CCCCC1 (centres unmarked) [Pollenal II, 2-Cyclohexylpropanal] | 20 to 50% | 20 to 50% | C (C >20%) | < 20% |  |  |  |  |  |  |
| CC(C)CCCC(C)CCO (centres unmarked) [tetrahydrogenol, 3,7-Dimethyl-1-octanol] | 20 to 50% | 50 to 80% | B (B >50%) | > 80% |  |  |  |  |  |  |
| CC1C/C=C/CCCCCCCCCC(=O)C1 (centres unmarked) [Muscenone delta, (5E)-3-methylcyclopentadec-5-en-1-one] | 20 to 50% | < 20% | C (C >20%) | 20 to 50% |  |  |  |  |  |  |
| CC(CC=O)CCCC(C)(C)O (centres unmarked) [hydroxycitronellal, 7-Hydroxy-3,7-dimethyl-octanal] | 20 to 50% | < 20% | B (B >50%) | 20 to 50% |  |  |  |  |  |  |
| CC(C=O)Cc1ccc(C(C)(C)C)cc1 (stereo not drawn) [lilial, p-tert-Butyl-α-methyl hydrocinnamic aldehyde] |  |  | C (C >20%) |  |  |  |  | C (C >20%) | C (C >20%) | C (C >20%) |
| O=C1CCCCCCCCCCCCCCO1 [pentalide, Oxacyclohexadecan-2-one] | 50 to 80% | 50 to 80% | B (B >50%) | > 80% |  |  |  |  |  |  |
| CC(CO)CC(C)c1ccccc1 (centres unmarked) [Pumple fleur, 2-Methyl-4-phenylpentanol] | < 20% | 20 to 50% | A (A >80%) | 50 to 80% |  |  |  |  |  |  |

More lines, main results first:

| inhibition at 100 µM (OR2W1; [1]) | inhibition at 100 µM (OR5K1; [2]) | Inhibition rate 5P3 (OR5P3) | inhibition at 100 µM (OR8H1; [3]) | Compound | inhibition at 100 µM (OR2W1; HEK293, 4 h) | inhibition at 100 µM (OR5K1; HEK293, 4 h) | inhibition at 100 µM (OR8H1; HEK293, 4 h) | Inhibition rate 2W1 (OR2W1; [4]) | Inhibition rate 5K1 (OR5K1; [5]) | Inhibition rate 8H1 (OR8H1; [6]) |
| --- | --- | --- | --- | --- | --- | --- | --- | --- | --- | --- |
| 50 to 80% | < 20% | C (C >20%) | 20 to 50% | CC/C=C\CC1=C(C)CCC1=O [cis-jasmone, (Z)-2-(2-Pentenyl)-3-methyl-2-cyclopenten-1-one] |  |  |  |  |  |  |
| > 80% | < 20% | A (A >80%) | < 20% | C=CC(C)(O)CCC=C(C)CCC=C(C)C (centres unmarked) [nerolidol, 3,7,11-Trimethyl-1,6,10-dodecatrien-3-ol] |  |  |  |  |  |  |
| 50 to 80% | 50 to 80% | C (C >20%) | 50 to 80% | C=C1CCCC(C)(C)C1C=CC(=O)CC (centres unmarked) [γ-methylionone, 1-(2,2-Dimethyl-6-methylencyclohexyl)-1-penten-3-one] |  |  |  |  |  |  |
| 50 to 80% | > 80% | A (A >80%) | 50 to 80% | CC1=CCC(C=CC(C)C(C)O)C1(C)C (centres unmarked) [Ebanol, 3-Methyl-5-(2,2,3-trimethyl-3-cyclopenten-1-yl)-4-penten-2-ol] |  |  |  |  |  |  |
| 20 to 50% | < 20% | C (C >20%) | 20 to 50% | CC12CCC(C1)C(C)(C)C2O (centres unmarked) [fenchyl alcohol, 1,3,3-trimethyl-bicyclo[2.2.1]heptan-2-ol] |  |  |  |  |  |  |
| > 80% | 50 to 80% | B (B >50%) | > 80% | C=CCCC(=O)C1=CCCC(C)(C)C1 [Dinascone, 1-(5,5-Dimethyl-cyclohexen-1-yl)-4-penten-1-one] |  |  |  |  |  |  |
| > 80% | > 80% | A (A >80%) | > 80% | CC(=O)C1=C(C)C2CC3(C1)C(C)CCC3C2(C)C (centres unmarked) [acetylcedrene, 1-(2,3,4,7,8,8a-Hexahydro-3,6,8,8-tetramethyl-1H-3a,7-methanoazulen-5-yl)-ethanone] |  |  |  |  |  |  |
